Values quoted from earlier work in patent publication US7413751B2, “Methods of treatment using a gastric retained losartan dosage” (Depomed, Inc., priority 2001, dated 2008).
Where two headings read alike, the source gives them in different places.

Columns and labels:
[1] = test system: diastolic pressure response to angiotensin II

SMILES | half-life (Japanese patients tested) [h] | half-life (in vivo) [h] | tmax (in vivo) [h] | effects at 24 hours ([1]; 25 mg dosage) | effects at 24 hours ([1]; 50 mg and 100 mg dosages) | peak:trough blood pressure ratio (5-6 hours after dosing: 24 hours after dosing) ([1]; 50 mg dosage) [%] | peak:trough blood pressure ratio (5-6 hours after dosing: 24 hours after dosing) ([1]; 100 mg dosage) [%] | blockade of the diastolic pressure response to angiotensin II ([1]; 24 hours after dosing)
CCCCc1nc(Cl)c(C(=O)O)n1Cc1ccc(-c2ccccc2-c2nn[nH]n2)cc1 [active metabolite of losartan potassium] | 4 to 5 | 6 to 9 | 2 to 4 |  |  |  |  | 
CCCCc1nc(Cl)c(CO)n1Cc1ccc(-c2ccccc2-c2nnn[nH]2)cc1.[K] [losartan potassium, 2-butyl-4-chloro-1[p-(o-1H-tetrazol-5-ylphenyl)benzyl]imidazole-5-methanol monopotassium salt] |  |  |  | not | observed | 60 | 72 | approximately 30%
